Reference: patent EP1120414A1, “DISUBSTITUTED MALEIMIDE COMPOUNDS AND MEDICINAL UTILIZATION THEREOF” (Japan Tobacco Inc., priority 1998, dated 2000)
Counter-ions that a name gives are not always drawn. Like-named read-outs stand apart in the source and are kept apart here.

Assays:
PKC β II = molecular target: T1, PKC β II (Homo sapiens, UniProt P05771); assay: PKC enzyme assay (BIOTRAK Protein kinase C enzyme assay system, 32P-ATP phosphorylation of peptide […]); format: biochemical
T1 construct: purchased CALBIOCHEM
T1 sequence (P05771 other isoform, or with tags, fused parts or gaps): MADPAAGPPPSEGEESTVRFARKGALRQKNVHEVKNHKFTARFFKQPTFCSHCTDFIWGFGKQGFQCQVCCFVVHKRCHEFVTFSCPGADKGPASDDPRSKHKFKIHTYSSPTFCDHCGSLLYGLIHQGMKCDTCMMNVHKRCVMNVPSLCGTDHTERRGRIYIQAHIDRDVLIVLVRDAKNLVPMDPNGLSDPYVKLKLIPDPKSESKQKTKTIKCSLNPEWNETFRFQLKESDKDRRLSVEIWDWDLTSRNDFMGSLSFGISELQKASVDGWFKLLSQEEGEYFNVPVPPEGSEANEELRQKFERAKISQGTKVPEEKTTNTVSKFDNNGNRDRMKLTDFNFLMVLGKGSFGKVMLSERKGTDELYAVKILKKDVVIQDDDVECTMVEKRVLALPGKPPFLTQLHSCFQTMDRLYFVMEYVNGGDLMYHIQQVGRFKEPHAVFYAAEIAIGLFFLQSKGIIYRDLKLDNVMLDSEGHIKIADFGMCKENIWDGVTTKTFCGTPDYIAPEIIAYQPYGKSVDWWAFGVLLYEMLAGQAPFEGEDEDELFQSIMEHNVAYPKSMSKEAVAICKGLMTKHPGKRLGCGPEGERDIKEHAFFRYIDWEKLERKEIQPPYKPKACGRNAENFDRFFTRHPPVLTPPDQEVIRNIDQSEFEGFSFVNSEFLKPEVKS
Source text: The method for determining the PKC inhibitory activity of the compound of the present invention is explained in the following. Inasmuch as PKCβII is present in greater number in intravascular cells than PKCβI, PKCβII was mainly used here to test the enzyme activity.
(§1) As the reagent for enzyme assay, BIOTRAK Protein kinase C enzyme assay system (hereinafter the system, Amersham), and as the PKC enzyme standard product, Protein Kinase C, Human Recombinant (CALBIOCHEM) were purchased and used in the assay. A substrate mixture was prepared by mixing calcium buffer (12 mM calcium acetate, 50 mM Tris/HCl pH 7.5, 0.05% (w/v) sodium azide), Lipid (0.3 mg/ml La-phosphatidyl-L-serine, […] phorbol 12-myristate 13-acetate, 50 mM Tris/HCl pH 7.5, 0.05% (w/v) sodium azide), peptide buffer (900 µM peptide […]), 50 mM Tris/HCl pH 7.5, 0.05% (w/v) sodium azide), DTT buffer (30 mM dithiothreitol, 50 mM Tris/HCl pH 7.5, 0.05% (w/v) sodium azide), and magnesium ATP buffer (1.2 mM ATP, […] pH 7.4, 72 mM magnesium chloride) all attached to the system in a ratio of 1:1:1:1:0.8 and adding [ y -32P]ATP (Amersham, cat. […] The PKC enzyme standard product was diluted with an assay buffer (10 mM Hepes pH 7.4, 0.01% Triton X-100) to a concentration of 400 ng/ml and used as the enzyme solution. The substrate mixture and a test substance (diluted to the final concentration of 1 nM-10 µM with dimethyl sulfoxide (DMSO)) were mixed at a ratio of 20:1. The enzyme solution was added in the amount equivalent to the substrate mixture and mixed, which was followed by incubation at 37°C for 15 minutes. The reaction terminator (300 mM orthophosphoric acid containing carmosine red) attached to the system was added in the amount equivalent to the substrate mixture to end the reaction, and the reaction mixture was spotted on a phosphocellulose paper (Whatman, P-81), washed twice with 75 mM orthophosphoric acid and assayed for radioactivity by BAS2000 (Fuji film).
(§2) The ratio of the radioactivity of the addition of the test substance to the addition of DMSO was determined, and IC50 was calculated from inhibition at each concentration.

PKC α = molecular target: T2, PKC α (Homo sapiens, UniProt P17252); assay: as above; format: biochemical
T2 construct: purchased CALBIOCHEM
Description: as §1, §2

[1] = Protein Kinase C, Human Recombinant; test substance 1 nM-10 µM; 37°C, 15 minutes; read-out: Inhibition of PKC activity IC50 PKC β II
[2] = Protein Kinase C, Human Recombinant; test substance 1 nM-10 µM; 37°C, 15 minutes; read-out: Inhibition of PKC activity IC50 PKC α
[3] = read-out: Inhibition of PKC activity IC50 PKC β II; Protein Kinase C, Human Recombinant; test substance 1 nM-10 µM; 37°C, 15 minutes
[4] = read-out: Inhibition of PKC activity IC50 PKC α; Protein Kinase C, Human Recombinant; test substance 1 nM-10 µM; 37°C, 15 minutes

Row | SMILES | Ratio α/β (PKC β II; IC50 PKC α / IC50 PKC β II) | IC50 (PKC β II; [1]) | IC50 (PKC α; [2]) | IC50 (PKC β II; [3]) | IC50 (PKC α; [4])
1 | O=C1NC(=O)C(c2cn(CCCCn3ccnc3)c3ccccc23)=C1Nc1cccc(Cl)c1 [Example 2-40, 3-[(3-chlorophenyl)amino]-4-[1-(4-imidazol-1-ylbutyl)-1H-indol-3-yl]-1H-pyrrole-2,5-dione] | 41 | 19 nM | 770 nM | – | –
2 | O=C1NC(=O)C(c2c3n(c4ccccc24)C[C@@H](CO)C=C3)=C1Nc1ccccc1 [Example 4-53] | 106 | – | – | 14 nM | 1480 nM
3 | NC(=O)C1CCCN1CCCn1cc(C2=C(Nc3ccccc3)C(=O)NC2=O)c2ccccc21 (centres unmarked) [Example 2-24, 3-[1-{3-(2-carbamoylpyrrolidin-1-yl)propyl}-1H-indol-3-yl]-4-(phenylamino)-1H-pyrrole-2,5-dione] | 42 | 66 nM | 2750 nM | – | –
4 | O=C1NC(=O)C(c2cn(CCCO)c3ccccc23)=C1Nc1ccc(Cl)c(Cl)c1 [Example 2-6, 3-[(3,4-dichlorophenyl)amino]-4-[1-(3-hydroxypropyl)-1H-indol-3-yl]-1H-pyrrole-2,5-dione] | 55 | 60 nM | 3310 nM | – | –
5 | Cc1cn(CCCn2cc(C3=C(Nc4cccc(Cl)c4)C(=O)NC3=O)c3ccccc32)cn1 [Example 2-58, 3-[(3-chlorophenyl)amino]-4-[1-{3-(4-methyl-imidazol-1-yl)propyl}-1H-indol-3-yl]-1H-pyrrole-2,5-dione] | 47 | 18 nM | 842 nM | – | –
6 | O=C1NC(=O)C(c2cn(CCCn3ccnc3)c3ccccc23)=C1Nc1cccc(Cl)c1 [Example 2-39, 3-[(3-chlorophenyl)amino]-4-[1-(3-imidazol-1-ylpropyl)-1H-indol-3-yl]-1H-pyrrole-2,5-dione] | 17 | 21 nM | 354 nM | – | –
7 | CCN(CC)C[C@H]1Cc2c(C3=C(Nc4ccccc4)C(=O)NC3=O)c3ccccc3n2C1 [Example 4-65] | 61 | 32 nM | – | – | 1950 nM
8 | O=C1NC(=O)C(c2c3n(c4ccccc24)CCCC(Cn2ccnc2)C3)=C1Nc1ccccc1 (centres unmarked) [Example 4-38] | 244 | – | – | 41 nM | > 10000 nM
9 | O=C1NC(=O)C(c2c3n(c4ccccc24)C[C@@H](CN2CCOCC2)CC3)=C1Nc1ccccc1 [Example 4-52] | 68 | – | – | 57 nM | 3880 nM
10 | CCN(C)C[C@H]1Cc2c(C3=C(Nc4ccc(OC)cc4)C(=O)NC3=O)c3ccccc3n2C1 [Example 4-63] | 69 | – | – | 16 nM | 1100 nM
11 | O=C1NC(=O)C(c2cn(CCCCO)c3ccccc23)=C1Nc1ccccc1 [Example 2-5, 3-[1-(4-hydroxybutyl)-1H-indol-3-yl]-4-(phenylamino)-1H-pyrrole-2,5-dione] | 61 | 30 nM | 1830 nM | – | –
12 | O=C1NC(=O)C(c2cn(CC(O)CO)c3ccccc23)=C1Nc1ccccc1 (centres unmarked) [Example 2-44, 3-[1-(2,3-dihydroxypropyl)-1H-indol-3-yl]-4-(phenylamino)-1H-pyrrole-2,5-dione] | 31 | 261 nM | 8160 nM | – | –
13 | O=C1NC(=O)C(c2c3n(c4ccccc24)C[C@@H](CN2CCOCC2)C3)=C1Nc1ccccc1 [Example 4-71] | 108 | – | – | 41 nM | 4450 nM
14 | O=C1NC(=O)C(c2cn(CC3CCN(CC(O)CO)CC3)c3ccccc23)=C1Nc1ccccc1 (centres unmarked) [Example 3-5, 3-[1-{[1-(2,3-dihydroxypropyl)piperidin-4-yl]methyl}-1H-indol-3-yl]-4-(phenylamino)-1H-pyrrole-2,5-dione] | 56 | 29 nM | 1630 nM | – | –
15 | Cc1c(C2=C(Nc3ccccc3)C(=O)NC2=O)c2ccccc2n1CCCN1CCCC1 [Example 2-55, 3-[2-methyl-1-(3-pyrrolidin-1-ylpropyl)-1H-indol-3-yl]-4-(phenylamino)-1H-pyrrole-2,5-dione] | 104 | 96 nM | > 10000 nM | – | –
16 | CCN(CC)C[C@@H]1CCc2c(C3=C(Nc4ccccc4)C(=O)NC3=O)c3ccccc3n2C1 [Example 4-50] | 82 | – | – | 6 nM | 494 nM
17 | CN(C)CC1CCn2c(c(C3=C(Nc4ccccc4)C(=O)NC3=O)c3ccccc32)C1 (centres unmarked) [Example 4-2, 3-[8-(dimethylaminomethyl)-6,7,8,9-tetrahydropyrido[1,2-a]indol-10-yl]-4-(phenylamino)-1H-pyrrole-2,5-dione] | 51 | 5 nM | 257 nM | – | –
18 | CN(C)C1CCN(CCCn2cc(C3=C(Nc4ccccc4)C(=O)NC3=O)c3ccccc32)CC1 [Example 2-34, 3-[1-{3-(4-dimethylaminopiperidino)propyl}-1H-indol-3-yl]-4-(phenylamino)-1H-pyrrole-2,5-dione] | 57 | 15 nM | 851 nM | – | –
19 | CN(C)CCN(C)CCn1cc(C2=C(Nc3ccccc3)C(=O)NC2=O)c2ccccc21 [Example 2-16, 3-[1-{2-[N-(2-dimethylaminoethyl)-N-methylamino]ethyl}-1H-indol-3-yl]-4-(phenylamino)-1H-pyrrole-2,5-dione] | 79 | 80 nM | 6290 nM | – | –
20 | CCN(CCCn1cc(C2=C(Nc3ccccc3)C(=O)NC2=O)c2ccccc21)Cc1ccncc1 [Example 2-18, 3-[1-{3-[N-ethyl-N-(4-pyridylmethyl)amino]propyl}-1H-indol-3-yl]-4-(phenylamino)-1H-pyrrole-2,5-dione] | 41 | 183 nM | 7530 nM | – | –
21 | CN(C)C[C@H]1Cc2c(C3=C(Nc4ccc(F)cc4)C(=O)NC3=O)c3ccccc3n2C1 [Example 4-69] | 76 | – | – | 6 nM | 455 nM
22 | CC(=O)OCCn1cc(C2=C(Nc3ccccc3)C(=O)NC2=O)c2ccccc21 [Example 2-7, 3-[1-(2-acetoxyethyl)-1H-indol-3-yl]-4-(phenylamino)-1H-pyrrole-2,5-dione] | 57 | 56 nM | 3170 nM | – | –
23 | O=C1NC(=O)C(c2c3n(c4ccccc24)C[C@H](CN2CCOCC2)CC3)=C1Nc1ccccc1 [Example 4-42] | 121 | – | – | 22 nM | 2660 nM
24 | O=C1NC(=O)C(c2c[nH]c3ccccc23)=C1Nc1cccc(Cl)c1 [Example 1-6, 3-[(3-chlorophenyl)amino]-4-(1H-indol-3-yl)-1H-pyrrole-2,5-dione] | 35 | 198 nM | 6910 nM | – | –
25 | N=C(N)SCCCn1cc(C2=C(Nc3ccccc3)C(=O)NC2=O)c2ccccc21 [Example 2-43, 3-[1-(3-amidinothiopropyl)-1H-indol-3-yl]-4-(phenylamino)-1H-pyrrole-2,5-dione hydrobromide] | – | 2 nM | 27 nM | – | –
26 | CCN(CCCn1cc(C2=C(Nc3ccccc3)C(=O)NC2=O)c2ccccc21)CCOC [Example 2-15, 3-[1-{3-[N-ethyl-N-(2-methoxyethyl)amino]propyl}-1H-indol-3-yl]-4-(phenylamino)-1H-pyrrole-2,5-dione] | 77 | 35 nM | 2680 nM | – | –
27 | O=C1NC(=O)C(c2c3n(c4ccccc24)C[C@@H](CO)C3)=C1Nc1ccc(F)cc1 [Example 4-68] | 85 | – | – | 4 nM | 341 nM
